Laboratory results as given in ChEMBL document CHEMBL1127284, “The synthesis of 2,3-dihydro-4(1H)-quinazolinone angiotensin II receptor antagonists” (Bioorg Med Chem Lett, 1994).

Molecular target: T1, Angiotensin II receptor (Rattus norvegicus, UniProt P29089+P25095+P35351)
T1 sequence (P29089 whole entry): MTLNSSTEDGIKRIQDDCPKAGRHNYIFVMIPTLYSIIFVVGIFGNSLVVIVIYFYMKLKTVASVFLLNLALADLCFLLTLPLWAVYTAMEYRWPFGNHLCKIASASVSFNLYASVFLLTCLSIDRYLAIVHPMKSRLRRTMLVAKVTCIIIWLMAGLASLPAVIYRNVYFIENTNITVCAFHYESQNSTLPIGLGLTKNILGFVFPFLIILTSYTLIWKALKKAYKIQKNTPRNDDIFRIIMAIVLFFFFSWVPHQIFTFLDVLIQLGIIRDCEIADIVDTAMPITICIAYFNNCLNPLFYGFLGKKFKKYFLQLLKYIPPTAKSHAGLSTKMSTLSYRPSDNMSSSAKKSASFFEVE
T1 sequence (P25095 whole entry): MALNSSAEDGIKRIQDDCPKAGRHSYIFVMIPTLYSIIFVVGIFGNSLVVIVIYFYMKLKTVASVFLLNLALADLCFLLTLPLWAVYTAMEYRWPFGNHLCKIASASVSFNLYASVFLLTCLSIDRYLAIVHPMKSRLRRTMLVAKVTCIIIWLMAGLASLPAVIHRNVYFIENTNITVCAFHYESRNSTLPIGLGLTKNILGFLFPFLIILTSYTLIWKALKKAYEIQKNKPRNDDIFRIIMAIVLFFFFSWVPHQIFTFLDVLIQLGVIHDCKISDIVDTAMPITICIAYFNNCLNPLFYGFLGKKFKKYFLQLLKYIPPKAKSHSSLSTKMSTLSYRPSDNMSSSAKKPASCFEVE
T1 sequence (P35351 whole entry): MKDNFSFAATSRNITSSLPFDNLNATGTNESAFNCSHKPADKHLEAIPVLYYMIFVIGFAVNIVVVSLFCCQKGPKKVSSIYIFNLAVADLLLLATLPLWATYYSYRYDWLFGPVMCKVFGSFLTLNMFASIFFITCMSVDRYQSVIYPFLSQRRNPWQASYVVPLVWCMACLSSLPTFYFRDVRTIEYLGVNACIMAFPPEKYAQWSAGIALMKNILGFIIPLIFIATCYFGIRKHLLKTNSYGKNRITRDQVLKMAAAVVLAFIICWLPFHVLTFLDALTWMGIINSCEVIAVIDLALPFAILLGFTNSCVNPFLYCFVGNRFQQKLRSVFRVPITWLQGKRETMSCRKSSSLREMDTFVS
Assay: Concentration required for 50% inhibition of binding against Angiotensin II receptor in the rat adrenal cortex tissue
Type: tissue-based

Row | IC50 [µM] | IC50 (read-out: IC50) [µM] | SMILES
1 | 14 | – | CCCCC1Nc2ccccc2C(=O)N1Cc1ccc(-c2ccccc2-c2nn[nH]n2)cc1 (stereo not given)
2 | 7.5 | – | CCCC1N(Cc2ccc(-c3ccccc3-c3nn[nH]n3)cc2)C(=O)c2ccccc2N1CC (stereo not given)
3 | 2.7 | – | CCCCC1Nc2ccc(C(C)(C)OC)cc2C(=O)N1Cc1ccc(-c2ccccc2-c2nn[nH]n2)cc1 (stereo not given)
4 | 13 | – | CCCCC1(CCCC)Nc2ccccc2C(=O)N1Cc1ccc(-c2ccccc2-c2nn[nH]n2)cc1
5 | 0.09 | – | CCCCC1Nc2ccc(C(C)C)cc2C(=O)N1Cc1ccc(-c2ccccc2-c2nn[nH]n2)cc1 (stereo not given)
6 | 4.1 | – | CCCCC1Nc2ccc(C(=O)OC)cc2C(=O)N1Cc1ccc(-c2ccccc2-c2nn[nH]n2)cc1 (stereo not given)
7 | 0.54 | – | CCCC1Nc2ccccc2C(=O)N1Cc1ccc(-c2ccccc2-c2nn[nH]n2)cc1 (stereo not given)
8 | – | 0.006 | CCCCc1nc2ccc(C(C)(C)OC)cc2c(=O)n1Cc1ccc(-c2ccccc2-c2nn[nH]n2)cc1 [CL-329167]
9 | 45 | – | CCC1Nc2ccc(C(C)C)cc2C(=O)N1Cc1ccc(-c2ccccc2-c2nn[nH]n2)cc1 (stereo not given)
10 | 0.05 | – | CCCC1N(Cc2ccc(-c3ccccc3-c3nn[nH]n3)cc2)C(=O)c2ccccc2N1C (stereo not given)
11 | 90 | – | CC1Nc2ccccc2C(=O)N1Cc1ccc(-c2ccccc2-c2nn[nH]n2)cc1 (stereo not given)
12 | 0.37 | – | CCCCC1Nc2ccc(CC)cc2C(=O)N1Cc1ccc(-c2ccccc2-c2nn[nH]n2)cc1 (stereo not given)
13 | 27 | – | CCC1Nc2ccccc2C(=O)N1Cc1ccc(-c2ccccc2-c2nn[nH]n2)cc1 (stereo not given)
14 | 2 | – | CCCCC1N(Cc2ccc(-c3ccccc3-c3nn[nH]n3)cc2)C(=O)c2cc(C(C)(C)OC)ccc2N1C (stereo not given)
15 | 12 | – | CCCC1Nc2ccc(C(C)C)cc2C(=O)N1Cc1ccc(-c2ccccc2-c2nn[nH]n2)cc1 (stereo not given)
16 | 0.65 | – | CCCCC1N(Cc2ccc(-c3ccccc3-c3nn[nH]n3)cc2)C(=O)c2cc(C(C)C)ccc2N1C (stereo not given)
17 | 100 | – | CCCC1N(Cc2ccc(-c3ccccc3-c3nn[nH]n3)cc2)C(=O)c2ccccc2N1Cc1ccccc1 (stereo not given)
18 | 1.1 | – | CCCCC1N(Cc2ccc(-c3ccccc3-c3nn[nH]n3)cc2)C(=O)c2ccccc2N1C (stereo not given)
19 | 3.7 | – | CCCCC1Nc2ccc(Cc3ccccc3)cc2C(=O)N1Cc1ccc(-c2ccccc2-c2nn[nH]n2)cc1 (stereo not given)
20 | 20 | – | CCC1Nc2ccc(C)cc2C(=O)N1Cc1ccc(-c2ccccc2-c2nn[nH]n2)cc1 (stereo not given)
